In patent US4159328A, “Tetrahydro-1,3,5-thiadiazin-4-one derivative” (Nihon Nohyaku Co., Ltd., priority 1977, dated 1979):

Legend:
Assay type in all cases: in vivo
[1] = system: larvae of brown planthopper (Nilaparvata lugens Stahl); experiment: Test Example 1: insecticidal activity against larvae of brown planthopper; settings: third-instar larvae, 25° C.
Procedure, shortened: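 Rice seedlings at 1.5-leaf stage were dipped for 30 s in a 400 ppm test composition, air-dried, and infested with third-instar N. lugens larvae. After holding at 25 °C, mortality was scored 5 or 7 days post-treatment from three replicates.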

[2] = system: cirrus red mite (Panonychus citri McGregor); experiment: Test Example 4: activity to citrus red mite (Rothamstead method); set-up: concentration or dose not given beside the values; settings: two days after treatment, 25° C.; 2880 min
Procedure: Activity to cirrus red mite (Panonychus citri McGregor).
Testing method: The test was performed by Rothamstead method. A test composition was sprayed by means of a spray gun over grapefruit leaves infested with citrus red mites. After air-drying the grapefruit was left standing in a constant temperature cabinet at 25° C. Two days after the treatment, the number of survived mites was counted to calculate the mortality.

[3] = system: larvae of green rice leafhopper (Nephotettix cincticeps Uhler); experiment: Test Example 5: activity against larvae of green rice leafhopper; settings: 168 h, 400 ppm, second-instar larvae, 25° C., seven days after treatment, read-out: Mortality
Procedure: Activity against larvae of green rice leafhopper (Nephotettix cincticeps Uhler).
Testing method: Five rice seedlings of the 1.5 leaf age were dipped in a test composition of 400 ppm concentration for 30 seconds. After air-drying, the seedlings were placed in a glass tube containing 1 ml of water and infested with five second-instar larvae of green rice leafhopper. The glass tube was left standing in a constant temperature cabinet at 25° C. Seven days after the treatment, dead-and-survivalwas inspected to calculate the mortality (3-replication test).

[4] = system: two-spotted spider mite (Tetranychus urticae Koch); experiment: Test Example 3: activity to two-spotted spider mite
Description: Activity to two-spotted spider mite (Tetranychus urticae Koch).
Testing method: Two-spotted spider mites were set free on the pot-planted soybean in a greenhouse. On the next day, a test composition of 1,000 ppm concentration was sprayed over the soybean by means of a spray gun. Two days or five days after the treatment, dead-and-survival was inspected to calculate the mortality.

[5] = system: larvae of white-backed planthopper (Sogatella furcifera Horvath); experiment: Test Example 2: insecticidal activity against larvae of white-backed planthopper; settings: 168 h, 400 ppm, first-instar larvae, 25° C., seven days after treatment, read-out: Mortality
Procedure: Insecticidal activity against larvae of white-backed planthopper (Sogatella furcifera Horvath).
Testing method: Five rice seedlings of the 1.5 leaf age were dipped in a test composition of 400 ppm concentration for 30 seconds. After air-drying, the seedlings were placed in a glass tube containing 1 ml of water and infested with five first-instar larvae of white-backed planthopper. The glass tube was left standing in a constant temperature cabinet at 25° C. and seven days after the treatment, dead-and-survival was observed. Mortality was calculated from the results of 3-replication test.

[6] = system: larvae of 28-spotted lady beetle (Epilachna vigintioctopunctana Fabricius); experiment: Test Example 8: insecticidal activity against larvae of 28-spotted lady beetle; settings: 120 h
Procedure: Insecticidal activity against larvae of 28-spotted lady beetle (Epilachna vigintioctopunctana Fabricius).
Testing method: Leaflets of tomato grown in a greenhouse were dipped in a test composition of 100 ppm concentration for 30 seconds and after that the leaflets were dried by air. In a Petri dish covered on the bottom with a piece of filter paper, were introduced 1 ml of water and three treated tomato leaflets. After having been infested with seven second-instar larvae of 28-spotted lady beetle, the Petri dish was left standing in a constant temperature cabinet at 25° C. Five days after the treatment, the dead-and-survival was inspected to calculate the mortality (2-replication test).

[7] = system: larvae of house mosquito (Culex pipiens pallens Coquillett); experiment: Test Example 6: insecticidal activity to larvae of house mosquito; settings: 120 h
Procedure: Insecticidal activity to larvae of house mosquito (Culex pipiens pallens Coquillett).
Test method: In a 200-ml beaker, was placed together with a feed 100 ml of a test composition diluted with deionized water to 10 ppm concentration. The test composition was infested with 20 first-instar larvae of house mosquito and the beaker was covered with a sheet of Japanese paper. The beaker was kept in a constant temperature cabinet at 25° C. Five days after the treatment, the dead-and-survival was inspected to calculate the mortality.

[8] = 48 h, 1,000 ppm, 2 days after treatment
[9] = 120 h, 1,000 ppm, 5 days after treatment

SMILES | mortality at 400 ppm ([1]; 168 h, 7 days after treatment) [%] | Mortality [2] [%] | mortality at 400 ppm [3] [%] | mortality at 1000 ppm [4, 8] [%] | mortality at 400 ppm [5] [%] | mortality at 400 ppm ([1]; 5 or 7 days after treatment (No. 123 not covered by footnote)) [%] | mortality at 400 ppm ([1]; 120 h, 5 days after treatment) [%] | mortality at 100 ppm [6] [%] | mortality at 1000 ppm [4, 9] [%] | mortality at 10 ppm [7] [%]
CC(C)N=C1SCN(C(C)C)C(=O)N1C [Compound 18, 2-Isopropylimino-3-methyl-5-isopropyl-tetrahydro-1,3,5-thiadiazin-4-one] | 100 | 100 | 100 | 80 | 100 |  |  |  |  | 
CN1C(=O)N(C(C)(C)CC(C)(C)C)CSC1=NC(C)(C)C [Compound 63, 2-t-Butylimino-3-methyl-5-(1,1,3,3-tetramethyl)-butyl-tetrahydro-1,3,5-thiadiazin-4-one] | 100 | 50 | 80 | 80 | 100 |  |  |  |  | 
CN=C1SCN(C(C)C)C(=O)N1c1ccccc1 [Compound 66, 2-Methylimino-3-phenyl-5-isopropyltetrahydro-1,3,5-thiadiazin-4-one] | 100 | 50 | 80 | 100 | 100 |  |  |  |  | 
CC(C)N=C1SCN(C)C(=O)N1C(C)C [Compound 2, 2-Isopropylimino-3-isopropyl-5-methyl-tetrahydro-1,3,5-thiadiazin-4-one] | 100 | 50 | 50 | 100 | 100 |  |  |  |  | 
CN=C1SCN(C(C)(C)C)C(=O)N1c1ccc(F)cc1 [Compound 71] | 80 | 50 | 50 | 100 | 80 |  |  |  |  | 
C=CCN1CSC(=NC)N(C)C1=O [Compound 9] | 100 | 50 | 100 | 80 | 100 |  |  |  |  | 
CCCCCCCCN1CSC(=NC(C)C)N(C)C1=O [Compound 65] | 100 | 100 | 50 | 100 | 100 |  |  |  |  | 
CCN1CSC(=NC(C)C)N(C(C)C)C1=O [Compound 8] | 100 | 80 | 80 | 100 | 100 |  |  |  |  | 
CN1C(=O)N(C2CCCCC2)CSC1=NC(C)(C)C [Compound 53] | 80 | 100 | 50 | 100 | 80 |  |  |  |  | 
CCCCCCN=C1SCN(c2ccc(F)cc2)C(=O)N1CCC [Compound 281] |  | 100 |  |  |  |  |  |  |  | 
CC(C)CN1CSC(=NC(C)C)N(C(C)C)C1=O [Compound 27] | 100 | 100 | 80 | 80 | 100 |  |  |  |  | 
CCCN1CSC(=NC(C)C)N(C(C)C)C1=O [Compound 14] | 80 | 50 | 100 | 100 | 100 |  |  |  |  | 
CCCCN1CSC(=NC(C)C)N(C)C1=O [Compound 25] | 100 | 80 | 100 | 100 | 100 |  |  |  |  | 
CN=C1SCN(C(C)(C)C)C(=O)N1c1ccc(Cl)cc1C [Compound 82] | 100 | 100 | 80 | 100 | 100 |  |  |  |  | 
Cc1ccccc1N=C1SCN(c2ccccc2)C(=O)N1C [Compound 124, 2-(2-Methyl)phenylimino-3-methyl-5-phenyltetrahydro-1,3,5-thiadiazin-4-one] |  | 100 |  |  |  |  |  |  |  | 
CCN1CSC(=NC(C)(C)C)N(C)C1=O [Compound 6] | 100 | 80 | 80 | 100 | 100 |  |  |  |  | 

SMILES | mortality at 400 ppm ([1]; 168 h, 7 days after treatment) [%] | Mortality [2] [%] | mortality at 400 ppm [3] [%] | mortality at 1000 ppm [4, 8] [%] | mortality at 400 ppm [5] [%] | mortality at 400 ppm ([1]; 5 or 7 days after treatment (No. 123 not covered by footnote)) [%] | mortality at 400 ppm ([1]; 120 h, 5 days after treatment) [%] | mortality at 100 ppm [6] [%] | mortality at 1000 ppm [4, 9] [%] | mortality at 10 ppm [7] [%]
CCN1C(=O)N(C(C)(C)C)CSC1=NC(C)(C)C [Compound 42] | 100 | 100 | 80 | 100 | 100 |  |  |  |  | 
CN1C(=O)N(C(C)(C)C)CSC1=NC(C)(C)C [Compound 37] | 100 | 100 | 50 | 100 | 100 |  |  |  |  | 
CCCCCCN1C(=O)N(c2ccccc2)CSC1=NC(C)C [Compound 153] |  | 100 | 100 |  |  |  |  |  |  | 
CCCCCCCCN1C(=O)N(c2ccccc2)CSC1=NC(C)CC (stereo not shown) [Compound 161] |  | 100 |  |  |  |  |  |  |  | 
CN1C(=N)SCN(c2ccccc2)C1=O [Compound 123] |  | 100 |  |  |  | 100 |  |  |  | 
CN=C1SCN(c2ccc(C)cc2)C(=O)N1C [Compound 309] |  | 100 |  |  |  |  |  |  |  | 
CC(C)N1C(=O)N(c2cccc(Cl)c2)CSC1=NC(C)(C)C [Compound 221, 2-t-Butylimino-3-isopropyl-5-(m-chlorophenyl)-tetrahydro-1,3,5-thiadiazin-4-one] |  |  | 100 |  | 100 |  | 100 | 90 | 100 | 100
CC(C)N1C(=O)N(c2ccccc2Cl)CSC1=NC(C)(C)C [Compound 245, 2-t-butylimino-3-isopropyl-5-(o-chlorophenyl)-tetrahydro-1,3,5-thiadiazin-4-one] |  |  | 100 |  | 100 |  | 100 | 90 | 100 | 100
CCC(C)N1C(=O)N(c2ccc(Cl)cc2)CSC1=NC(C)(C)C (stereo not shown) [Compound 198] |  |  | 100 |  | 100 |  | 100 | 100 | 100 | 100
Cc1ccc(N2CSC(=NC(C)C)N(C)C2=O)cc1 [Compound 310] |  | 100 |  |  |  |  |  |  |  | 100
CCC(C)N1C(=O)N(c2ccc(F)cc2)CSC1=NC(C)(C)C (stereo not shown) [Compound 284] |  |  | 100 |  | 100 |  | 100 | 100 | 100 | 100
CCC(C)N1C(=O)N(c2ccc(OC)cc2)CSC1=NC(C)(C)C (stereo not shown) [Compound 355, 2-t-butylimino-3-s-butyl-5-(p-methoxyphenyl)-tetrahydro-1,3,5-thiadiazin-4-one] |  |  | 100 |  | 100 |  | 100 | 100 | 100 | 90
CCOc1ccc(N2CSC(=NC(C)(C)C)N(C(C)CC)C2=O)cc1 (stereo not shown) [Compound 368, 2-t-Butylimino-3-s-butyl-5-(4-ethoxyphenyl)tetrahydro-1,3,5-thiadiazin-4-one] |  | 100 |  |  |  |  | 80 |  | 100 | 
CN=C1SCN(c2ccccc2)C(=O)N1C [Compound 115, 2-Methylimino-3-methyl-5-phenyl-tetrahydro-1,3,5-thiadiazin-4-one] |  | 100 |  |  |  |  |  |  |  | 
CC(C)N=C1SCN(c2ccc(F)cc2)C(=O)N1C(C)C [Compound 285] |  |  | 100 |  | 100 |  | 100 | 80 | 100 | 100
